{"source": "PubChem BioAssay AID248", "about": "(DTP/NCI, 2004)", "system": "L1210 leukemia ip in BDF1 mice, survival T/C", "experiment": "NCI In Vivo Anticancer Drug Screen. Data for tumor model L1210 Leukemia (intraperitoneal) in B6D2F1 (BDF1) mice", "conditions": "higher = longer survival", "outline": "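Transplantable tumor model; survival measured in treated vs vehicle control mice. Value = treated/control.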", "key": {"[1]": {"conditions": "endpoint: mean survival time, dose: 100.0 mg/kg/injection, schedule: Q01DX001 (ip), vehicle: saline"}, "[2]": {"conditions": "endpoint: mean survival time, dose: 200.0 mg/kg/injection, schedule: Q01DX001 (ip), vehicle: saline"}, "[3]": {"conditions": "endpoint: mean survival time, dose: 100.0 mg/kg/injection, schedule: Q04DX003 (ip), vehicle: Klucel (hydroxypropylcellulose) (HPC)"}}, "note": "“And” between values parts separate entries of the source, which are not always exact repeats. Equal entries are not always repeated. Inconclusive results and toxic doses are left out."}
{"smiles": "C/C(=N\\N=C(N)N)c1ccc(NC(=O)Nc2ccc(/C(C)=N/N=C(N)N)cc2)cc1", "values": [{"measurement": "T/C", "setting": "endpoint: mean survival time, dose: 10.0 mg/kg/injection, schedule: Q01DX009 (ip), vehicle: saline", "value": "109 % of control and 124 % of control"}, {"measurement": "T/C", "setting": "endpoint: mean survival time, dose: 18.0 mg/kg/injection, schedule: Q01DX009 (ip), vehicle: water", "value": "187 % of control"}, {"measurement": "T/C", "setting": "endpoint: mean survival time, dose: 20.0 mg/kg/injection, schedule: Q01DX005 (ip), vehicle: saline", "value": "157 % of control"}, {"measurement": "T/C", "setting": "endpoint: mean survival time, dose: 30.0 mg/kg/injection, schedule: Q01DX009 (ip), vehicle: carboxymethylcellulose (CMC)", "value": "152 % of control"}, {"measurement": "T/C", "setting": "endpoint: mean survival time, dose: 30.0 mg/kg/injection, schedule: Q01DX009 (ip), vehicle: water", "value": "188 % of control"}, {"measurement": "T/C", "setting": "endpoint: mean survival time, dose: 40.0 mg/kg/injection, schedule: Q01DX005 (ip), vehicle: saline", "value": "150 % of control"}, {"measurement": "T/C", "setting": "endpoint: mean survival time, dose: 40.0 mg/kg/injection, schedule: Q01DX009 (ip), vehicle: water", "value": "174 % of control"}, {"measurement": "T/C", "setting": "endpoint: mean survival time, dose: 50.0 mg/kg/injection, schedule: Q01DX009 (ip), vehicle: carboxymethylcellulose (CMC)", "value": "189 % of control"}, {"measurement": "T/C", "setting": "endpoint: mean survival time, dose: 50.0 mg/kg/injection, schedule: Q01DX009 (ip), vehicle: water", "value": "259 % of control"}, {"measurement": "T/C", "setting": "endpoint: mean survival time, dose: 65.0 mg/kg/injection, schedule: Q01DX009 (ip), vehicle: water", "value": "167 % of control"}, {"measurement": "T/C", "setting": "endpoint: mean survival time, dose: 80.0 mg/kg/injection, schedule: Q01DX005 (ip), vehicle: saline", "value": "177 % of control"}, {"measurement": "T/C", "setting": "endpoint: mean survival time, dose: 83.3 mg/kg/injection, schedule: Q01DX009 (ip), vehicle: carboxymethylcellulose (CMC)", "value": "257 % of control"}, {"measurement": "T/C", "setting": "endpoint: mean survival time, dose: 83.3 mg/kg/injection, schedule: Q01DX009 (ip), vehicle: water", "value": "243 % of control"}, {"measurement": "T/C", "setting": "endpoint: mean survival time, dose: 108.0 mg/kg/injection, schedule: Q01DX015 (ip), vehicle: saline", "value": "172 % of control"}, {"measurement": "T/C", "setting": "endpoint: mean survival time, dose: 160.0 mg/kg/injection, schedule: Q01DX005 (ip), vehicle: saline", "value": "226 % of control"}, {"measurement": "T/C", "setting": "endpoint: mean survival time, dose: 180.0 mg/kg/injection, schedule: Q01DX015 (ip), vehicle: saline", "value": "207 % of control"}, {"measurement": "T/C", "setting": "endpoint: mean survival time, dose: 400.0 mg/kg/injection, schedule: Q01DX001 (ip), vehicle: other", "value": "157 % of control"}, {"measurement": "T/C", "setting": "endpoint: mean survival time, dose: 600.0 mg/kg/injection, schedule: Q01DX001 (ip), vehicle: other", "value": "188 % of control"}, {"measurement": "T/C", "setting": "endpoint: median survival time, dose: 50.0 mg/kg/injection, schedule: Q01DX009 (ip), vehicle: saline", "value": "162 % of control"}, {"measurement": "T/C", "setting": "endpoint: median survival time, dose: 60.0 mg/kg/injection, schedule: Q03HX024 (ip), vehicle: water", "value": "228 % of control"}, {"measurement": "T/C", "setting": "endpoint: median survival time, dose: 75.0 mg/kg/injection, schedule: Q03HX024 (ip), vehicle: water", "value": "166 % of control"}, {"measurement": "T/C", "setting": "endpoint: median survival time, dose: 90.0 mg/kg/injection, schedule: Q03HX024 (ip), vehicle: water", "value": "284 % of control"}, {"measurement": "T/C", "setting": "endpoint: median survival time, dose: 100.0 mg/kg/injection, schedule: Q01DX009 (ip), vehicle: saline", "value": "215 % of control and 262 % of control"}, {"measurement": "T/C", "setting": "endpoint: median survival time, dose: 105.0 mg/kg/injection, schedule: Q03HX024 (ip), vehicle: water", "value": "168 % of control"}, {"measurement": "T/C", "setting": "endpoint: median survival time, dose: 120.0 mg/kg/injection, schedule: Q03HX024 (ip), vehicle: water", "value": "303 % of control"}, {"measurement": "T/C", "setting": "endpoint: median survival time, dose: 200.0 mg/kg/injection, schedule: Q01DX009 (ip), vehicle: saline", "value": "260 % of control and 312 % of control"}]}
{"smiles": "NC(=O)CS", "values": [{"measurement": "T/C", "setting": "[1]", "value": "96 % of control"}, {"measurement": "T/C", "setting": "[2]", "value": "105 % of control"}]}
{"smiles": "CC(=O)Nc1ccc(I)cc1C(=O)O", "values": [{"measurement": "T/C", "setting": "endpoint: mean survival time, dose: 50.0 mg/kg/injection, schedule: Q01DX001 (ip), vehicle: carboxymethylcellulose (CMC)", "value": "96 % of control"}, {"measurement": "T/C", "setting": "endpoint: mean survival time, dose: 100.0 mg/kg/injection, schedule: Q01DX001 (ip), vehicle: carboxymethylcellulose (CMC)", "value": "91 % of control"}, {"measurement": "T/C", "setting": "endpoint: mean survival time, dose: 200.0 mg/kg/injection, schedule: Q01DX001 (ip), vehicle: carboxymethylcellulose (CMC)", "value": "91 % of control"}]}
{"smiles": "ClC1CCC[N-]C1.ClC1CCC[N-]C1.[Cl][Pt+2][Cl]", "note": "(centres undefined)", "values": [{"measurement": "T/C", "setting": "endpoint: mean survival time, dose: 50.0 mg/kg/injection, schedule: Q04DX003 (ip), vehicle: saline with Tween-80", "value": "102 % of control"}, {"measurement": "T/C", "setting": "endpoint: mean survival time, dose: 100.0 mg/kg/injection, schedule: Q04DX003 (ip), vehicle: saline with Tween-80", "value": "104 % of control"}, {"measurement": "T/C", "setting": "endpoint: mean survival time, dose: 200.0 mg/kg/injection, schedule: Q04DX003 (ip), vehicle: saline with Tween-80", "value": "102 % of control"}]}
{"smiles": "O=C(NNC(=O)c1ccc([N+](=O)[O-])cc1)c1ccccc1", "values": [{"measurement": "T/C", "setting": "endpoint: mean survival time, dose: 100.0 mg/kg/injection, schedule: Q01DX009 (ip), vehicle: Klucel (hydroxypropylcellulose) (HPC)", "value": "96 % of control"}, {"measurement": "T/C", "setting": "[3]", "value": "105 % of control"}, {"measurement": "T/C", "setting": "endpoint: mean survival time, dose: 200.0 mg/kg/injection, schedule: Q01DX009 (ip), vehicle: Klucel (hydroxypropylcellulose) (HPC)", "value": "101 % of control"}, {"measurement": "T/C", "setting": "endpoint: mean survival time, dose: 200.0 mg/kg/injection, schedule: Q04DX003 (ip), vehicle: Klucel (hydroxypropylcellulose) (HPC)", "value": "103 % of control"}, {"measurement": "T/C", "setting": "endpoint: mean survival time, dose: 400.0 mg/kg/injection, schedule: Q01DX009 (ip), vehicle: Klucel (hydroxypropylcellulose) (HPC)", "value": "94 % of control"}, {"measurement": "T/C", "setting": "endpoint: mean survival time, dose: 400.0 mg/kg/injection, schedule: Q04DX003 (ip), vehicle: Klucel (hydroxypropylcellulose) (HPC)", "value": "100 % of control"}]}
{"smiles": "COc1ccccc1N=Nc1c(O)n(-c2ccccc2C)c(=S)n(-c2ccccc2)c1=O", "values": [{"measurement": "T/C", "setting": "endpoint: mean survival time, dose: 25.0 mg/kg/injection, schedule: Q04DX003 (ip), vehicle: Klucel (hydroxypropylcellulose) (HPC)", "value": "107 % of control"}, {"measurement": "T/C", "setting": "endpoint: mean survival time, dose: 50.0 mg/kg/injection, schedule: Q04DX003 (ip), vehicle: Klucel (hydroxypropylcellulose) (HPC)", "value": "105 % of control"}, {"measurement": "T/C", "setting": "endpoint: mean survival time, dose: 100.0 mg/kg/injection, schedule: Q01DX001 (ip), vehicle: Klucel (hydroxypropylcellulose) (HPC)", "value": "101 % of control"}, {"measurement": "T/C", "setting": "[3]", "value": "107 % of control"}, {"measurement": "T/C", "setting": "endpoint: mean survival time, dose: 200.0 mg/kg/injection, schedule: Q01DX001 (ip), vehicle: Klucel (hydroxypropylcellulose) (HPC)", "value": "95 % of control"}]}
{"smiles": "O=S(=O)(Cl)c1ccc(Oc2ccc(S(=O)(=O)Cl)cc2)cc1", "values": [{"measurement": "T/C", "setting": "endpoint: mean survival time, dose: 50.0 mg/kg/injection, schedule: Q01DX001 (ip), vehicle: saline", "value": "105 % of control"}, {"measurement": "T/C", "setting": "[1]", "value": "94 % of control"}, {"measurement": "T/C", "setting": "[2]", "value": "105 % of control"}, {"measurement": "T/C", "setting": "endpoint: mean survival time, dose: 400.0 mg/kg/injection, schedule: Q01DX001 (ip), vehicle: saline", "value": "90 % of control"}]}
